Data set [1] can be described thus: Rat colon pharmacokinetic study (plasma, colon, colon + fecal content). The format is in vivo. To be noted: SD rats, 10 mg/kg oral gavage; for Colon + Feces AUC: colon homogenized with fecal content; for Colon AUC: colon washed of fecal content; for half-life / AUC / Cmax: Sprague-Dawley (SD), rat; for half-life: in vivo; for AUC / Cmax: plasma. The method, then:
The aim of this study was to obtain the pharmacokinetics of test articles in SD rats after oral administration. […] Rats were dosed with 10 mg/kg (1 mg/ml) via oral gavage. After dosing, blood and colon samples were collected at each time point (typically 0.5, 1, 3, 6, 24 hour). Blood was collected into appropriately labeled tubes containing K2EDTA as the anticoagulant. Plasma was obtained within one hour of blood collection by centrifugation at 8000g, 4-10° C. for 6 minutes, and then stored at −20° C. until analyzed by LC-MS/MS for quantification. Colon tissues were collected from exsanguinated rats at each time point. Collected colon tissue was divided into two parts. One part for the measurement of test articles in colon was washing three times by PBS to remove the fecal content before homogenization. The other part was homogenized with the fecal content for the measurement of test articles in colon and fecal content. Colon samples were homogenized in 1:5 (w/v) phosphate buffer (100 mM, pH 7.4). Homogenized samples were extracted with 3 fold volumes of acetonitrile and quantified against a standard curve with LC-MS/MS system.

Data set [2] can be described thus: Rat pharmacokinetic study (intravenous and oral). The format is in vivo. The settings on record: male, plasma, Sprague-Dawley rats, intravenous, 1 mg/kg, solution.
The nature of data set [3]: Rat pharmacokinetic study (intravenous and oral). The format is in vivo. To be noted: Sprague-Dawley rats, oral, 2 mg/kg, solution.
Data set [4] can be described thus: Dog pharmacokinetic study (intravenous and oral). The data set is classed as in vivo. The settings on record: plasma, Beagle dogs, oral, 20 mg/kg, solution.
The nature of data set [5]: Mini-pig dermal pharmacokinetic study. The data set is classed as in vivo, Guangxi Bama mini-pigs. The settings on record: topical administration. An excerpt: The aim of this study was to obtain the topical distribution of test articles in mini-pig after topical administration. Test articles were formulated in 50% PEG400, 10% transcutol and 40% PEG3350 (50% in water), and then applied to male Guangxi Bama mini-pigs (17-20 kg). Twenty-four hour prior to dosing, the hair of the mini-pig was shaved in left and right sides of the back. Two areas at least 5 cm apart at each side of the back were exposed (a total of four areas, each of which was about 112 cm^2). At the time zero, the test article was dosed to the exposed skins with […]. After dosing, the blood and skin samples were collected at 0.5, 1, 3, 6 hour. The blood was taken via venipuncture, and collected to the tubes containing heparin sodium as the anticoagulant. Exposed skin was washed with soap and water before skin sample was collected. Upon the dosed skin the punch biopsy from the epidermis layer to the muscle layer were taken at each time point. Epidermis, dermis, subcutis and subcutaneous muscle were quickly separated, weighed and frozen in dry ice. Epidermis and dermis were homogenized in 1:3 (w/v) normal saline. Homogenized samples were extracted with 3 fold volumes of acetonitrile and quantified against a standard curve with LC-MS/MS system.

Data set [6] is described as follows: Mouse pharmacokinetic study (intravenous and oral). The format is in vivo. The settings on record: male, plasma, ICR mice, solution. The method, then: Pharmacokinetic profile of test articles in rodent were evaluated in fasted male ICR mouse and Sprague-Dawley rats. […] Rats were dosed with 1 mg/kg and 5 mg/kg by intravenous injection and oral gavage, respectively. Beagle dogs were dosed with 1 mg/kg and 5 mg/kg by intravenous injection and oral gavage, respectively. After dosing, blood samples were collected at each time point. For IV injection group, time points were set at 5, 15, 30 min, and then 1, 2, 4, 8 and 24 hours after dosing. For oral gavage group, timepoints were set at 15, 30 m, and then 1, 2, 4, 8, and 24 hours. Blood was collected into appropriately labeled tubes containing K2EDTA as the anticoagulant. Plasma was obtained within 1 hours of blood collection by centrifugation at 8000×g and 4° C. for 6 minutes, and then stored at −20° C. until analyzed by LCMS/MS for quantification.

Data set [7] in a line: Dog pharmacokinetic study (intravenous and oral). The data set is classed as in vivo. To be noted: plasma, Beagle dogs, oral, 5 mg/kg, solution. The method, then: Pharmacokinetic profile of test articles in rodent were evaluated in fasted male ICR mouse and Sprague-Dawley rats. […] Typically, mice were dosed with 2 mg/kg and 10 mg/kg by intravenous injection and oral gavage, respectively. Rats were dosed with 1 mg/kg and 5 mg/kg by intravenous injection and oral gavage, respectively. Beagle dogs were dosed with 1 mg/kg and 5 mg/kg by intravenous injection and oral gavage, respectively. After dosing, blood samples were collected at each time point. For IV injection group, time points were set at 5, 15, 30 min, and then 1, 2, 4, 8 and 24 hours after dosing. For oral gavage group, timepoints were set at 15, 30 m, and then 1, 2, 4, 8, and 24 hours. Blood was collected into appropriately labeled tubes containing K2EDTA as the anticoagulant. Plasma was obtained within 1 hours of blood collection by centrifugation at 8000×g and 4° C. for 6 minutes, and then stored at −20° C. until analyzed by LCMS/MS for quantification.

For orientation: half-life means how long it takes for the measured level to halve. In general, AUC refers to concentration integrated over time. Usually Cmax stands for the highest concentration seen after dosing. Usually bioavailability stands for dose-corrected exposure relative to a reference, in per cent. A high value points to good availability. Regarding `Cc1cnc(Nc2cnn(CC#N)c2)nc1-c1ccc(C(=O)NCC#N)cc1` [Example 4, N-(Cyanomethyl)-4-(2-((1-(cyanomethyl)-1H-pyrazol-4-yl)amino)-5-methylpyrimidin-4-yl)benzamide], in data set [1], the “Colon + Feces AUC” value is 545,501 h*ng/g, the “Colon AUC” value is 6,623 h*ng/g, the half-life is 1.6 h and the AUC amounted to 96 ng·h/mL. For the same compound, in data set [1], the Cmax was 68.8 ng/mL. In data set [2], this compound had an AUC of 855 ng·h/mL, a Vd of 0.37 L/kg, a clearance of 19.4 mL/min/kg and a half-life of 0.22 h. Besides, the F in data set [3] amounted to 1.9%. In data set [3] (male, rat, plasma), this compound had an AUC of 29.8 ng·h/mL, a Cmax of 40.4 ng/mL and a half-life of 0.38 h. Besides, in data set [4], the AUC was 57.2 ng·h/mL, the peak level (Cmax) was 58 ng/mL, the bioavailability was found to be 1.8% and the half-life was 0.439 h.

As to `C[C@@H](C#N)NC(=O)c1ccc(-c2nc(Nc3cnn(C4CCN(C)CC4)c3)ncc2Cl)cc1` [Example 43, (S)-4-(5-Chloro-2-((1-(1-methylpiperidin-4-yl)-1H-pyrazol-4-yl)amino)pyrimidin-4-yl)-N-(1-cyanoethyl)benzamide], in data set [1], the “Colon + Feces AUC” value is given as 559,570 h*ng/g, the “Colon AUC” value was 3860 ng·h/g, the AUC turned out to be 0.4 ng·h/mL and the Cmax was determined as 1.6 ng/mL.

Take `Cc1cnc(Nc2cnn(C3CC(C)(C)OC(C)(C)C3)c2)nc1-c1ccc(C(=O)NCC#N)cc1` [Example 113, N-(cyanomethyl)-4-(5-methyl-2-((1-(2,2,6,6-tetramethyltetrahydro-2H-pyran-4-yl)-1H-pyrazol-4-yl)amino)pyrimidin-4-yl)benzamide]: the “Dermis, AUC0-last” value in data set [5] (dermis) turned out to be 5209.4 ng·h/g. Moreover, the “Epidermis AUC0-last” value in data set [5] (epidermis) turned out to be 107236.9 ng·h/g. In data set [6] (intravenous, 1 mg/kg), this compound had an area under the curve (AUC) of 279 ng·h/mL, a Vd of 0.67 L/kg, a clearance of 59.5 mL/min/kg and a half-life of 0.13 h. Further, in data set [6] (oral, 5 mg/kg), the AUC was 113 ng·h/mL, the peak level (Cmax) was 175 ng/mL, the bioavailability was 8.26% and the half-life was 1.7 h.

For `Cc1cnc(Nc2cnn(C3CCN(C(=O)CO)CC3)c2)nc1-c1ccc(C(=O)N[C@@H](C)C#N)cc1` [Example 119, (S)—N-(1-cyanoethyl)-4-(2-((1-(1-(2-hydroxyacetyl)piperidin-4-yl)-1H-pyrazol-4-yl)amino)-5-methylpyrimidin-4-yl)benzamide], in data set [1], the “Colon + Feces AUC” value is given as 1,629,181 h*ng/g, the “Colon AUC” value turned out to be 6898 ng·h/g, the area under the curve (AUC) is 23.7 ng·h/mL and the Cmax worked out at 16 ng/mL. In addition, in data set [7], the AUC worked out at 93.6 ng·h/mL, the peak level (Cmax) was 37.9 ng/mL, the bioavailability is 4.6% and the half-life is 1.66 h.

In data set [7], `C[C@@H](C#N)NC(=O)c1ccc(-c2nc(Nc3cnn(C4CCNCC4)c3)ncc2Cl)cc1` [Example 165, (S)-4-(5-chloro-2-((1-(piperidin-4-yl)-1H-pyrazol-4-yl)amino)pyrimidin-4-yl)-N-(1-cyanoethyl)benzamide] displayed an AUC of 27.9 ng·h/mL, a Cmax of 11 ng/mL and a bioavailability of 0.9%.

Consider `CC[C@@H](C#N)NC(=O)c1ccc(-c2nc(Nc3cnn(C4CCNCC4)c3)ncc2Cl)cc1` [Example 183, (S)-4-(5-chloro-2-((1-(piperidin-4-yl)-1H-pyrazol-4-yl)amino)pyrimidin-4-yl)-N-(1-cyanopropyl)benzamide], for which, in data set [7], the AUC was 29.9 ng·h/mL, the Cmax was 5.63 ng/mL, the bioavailability is 0.8% and the half-life was 3.34 h.

On to `CC[C@@H](C#N)NC(=O)c1ccc(-c2nc(Nc3cnn(C4CCN(C)CC4)c3)ncc2C)cc1` [Example 184, (S)—N-(1-Cyanopropyl)-4-(5-methyl-2-((1-(1-methylpiperidin-4-yl)-1H-pyrazol-4-yl)amino)pyrimidin-4-yl)benzamide], for which, in data set [1], the “Colon + Feces AUC” value is listed as 827,222 h*ng/g, the “Colon AUC” value was 3,961 h*ng/g, the half-life was 0.5 h and the AUC stood at 8.9 ng·h/mL. Moreover, in data set [1], the Cmax worked out at 9.3 ng/mL. In data set [7], this compound gave an AUC of 527 ng·h/mL, a Cmax of 125 ng/mL, a bioavailability of 19.1% and a half-life of 3.15 h.
